In patent publication US20130131043A1, “PYRAZOLE COMPOUNDS AS JAK INHIBITORS” (priority 2010, published 2013) one finds IC50 data, which are given here for 16 molecules.

The target in one experiment is T1, JAK2 (Homo sapiens, UniProt O60674).
T1 construct: endogenous in cells; host or cells: Molt4 (ATCC CRL-1582) and Ramos (ATCC CRL-1596) cell lysate; mixed Molt4/Ramos lysate 1:2
The experiment can be described thus: Kinobeads assay, JAK2 (competition binding in cell lysate, dot blot detection). The settings on record: mixed Molt4/Ramos lysate. Here is the method:
(§1) The compounds of the present invention as described in the previous examples were tested in a Kinobeads™ assay as described for ZAP-70 (WO-A 2007/137867). Briefly, test compounds (at various concentrations) and the affinity matrix with the immobilized aminopyrido-pyrimidine ligand 24 were added to cell lysate aliquots and allowed to bind to the proteins in the lysate sample. After the incubation time the beads with captured proteins were separated from the lysate. Bound proteins were then eluted and the presence of JAK2 and JAK3 was detected and quantified using specific antibodies in a dot blot procedure and the Odyssey infrared detection system. Dose response curves for individual kinases were generated and IC50 values calculated. Kinobeads™ assays for ZAP-70 (WO-A 2007/137867) and for kinase selectivity profiling (WO-A 2006/134056) have been previously described.
(§2) 5×DP buffer: 250 mM Tris-HCl pH 7.4, 25% Glycerol, 7.5 mM MgCl2, 750 mM NaCl, 5 mM Na3VO4; filter the 5×DP buffer through a 0.22 μm filter and store in aliquots at −80° C. The 5×DP buffer is diluted with H2O to 1×DP buffer containing 1 mM DTT and 25 mM NaF.
(§3) Stock solutions of test compounds were prepared in DMSO. In a 96 well plate 30 μL solution of diluted test compounds at 5 mM in DMSO were prepared. Starting with this solution a 1:3 dilution series (9 steps) was prepared. For control experiments (no test compound) a buffer containing 2% DMSO was used.
(§4) Molt4 cells (ATCC catalogue number CRL-1582) and Ramos cells (ATCC catalogue number CRL-1596) were grown in 1 L Spinner flasks (Integra Biosciences, #182101) in suspension in RPMI 1640 medium (Invitrogen, #21875-034) supplemented with 10% Fetal Bovine Serum (Invitrogen) at a density between 0.15×10^6 and 1.2×10^6 cells/mL. Cells were harvested by centrifugation, washed once with 1×PBS buffer (Invitrogen, #14190-094) and cell pellets were frozen in liquid nitrogen and subsequently stored at −80° C. Cells were homogenized in a Potter S homogenizer in lysis buffer: 50 mM Tris-HCl, 0.8% NP40, 5% glycerol, 150 mM NaCl, 1.5 mM MgCl2, 25 mM NaF, 1 mM sodium vanadate, 1 mM DTT, pH 7.5. One complete EDTA-free tablet (protease inhibitor cocktail, Roche Diagnostics, 1873580) per 25 mL buffer was added. The material was dounced 10 times using a mechanized POTTER S, transferred to 50 mL falcon tubes, incubated for 30 minutes on ice and spun down for 10 minutes at 20,000 g at 4° C. (10,000 rpm in Sorvall SLA600, precooled). The supernatant was transferred to an ultracentrifuge (UZ)-polycarbonate tube (Beckmann, 355654) and spun for 1 hour at 100.000 g at 4° C. (33.500 rpm in Ti50.2, precooled). The supernatant was transferred again to a fresh 50 mL falcon tube, the protein concentration was determined by a Bradford assay (BioRad) and samples containing 50 mg of protein per aliquot were prepared. The samples were immediately used for experiments or frozen in liquid nitrogen and stored frozen at −80° C.
(§5) Cell lysate (approximately 50 mg protein per plate) was thawed in a water bath at room temperature and then stored on ice. To the thawed cell lysate 1×DP 0.8% NP40 buffer containing protease inhibitors (1 tablet for 25 mL buffer; EDTA-free protease inhibitor cocktail; Roche Diagnostics 1873580) was added in order to reach a final protein concentration of 10 mg/mL total protein. The diluted cell lysate was stored on ice. Mixed Molt4/Ramos lysate was prepared by combining one volume of Molt4 lysate and two volumes of Ramos lysate (ratio 1:2).
(§6) Plates were sealed and incubated for 3 hours in a cold room on a plate shaker (Heidolph tiramax 1000) at 750 rpm. Afterwards the plate was washed 3 times with 230 μL washing buffer (1×DP 0.4% NP40). The filter plate was placed on top of a collection plate (Greiner bio-one, PP-microplate 96 well V-shape, 65120) and the beads were then eluted with 20 μL of sample buffer (100 mM Tris, pH 7.4, 4% SDS, 0.00025% bromophenol blue, 20% glycerol, 50 mM DTT). […]

Another experiment addresses T2, JAK3 (Homo sapiens, UniProt P52333).
T2 construct: endogenous in cells; host or cells: Molt4 (ATCC CRL-1582) and Ramos (ATCC CRL-1596) cell lysate; mixed Molt4/Ramos lysate 1:2
T2 sequence (P52333 1-1124): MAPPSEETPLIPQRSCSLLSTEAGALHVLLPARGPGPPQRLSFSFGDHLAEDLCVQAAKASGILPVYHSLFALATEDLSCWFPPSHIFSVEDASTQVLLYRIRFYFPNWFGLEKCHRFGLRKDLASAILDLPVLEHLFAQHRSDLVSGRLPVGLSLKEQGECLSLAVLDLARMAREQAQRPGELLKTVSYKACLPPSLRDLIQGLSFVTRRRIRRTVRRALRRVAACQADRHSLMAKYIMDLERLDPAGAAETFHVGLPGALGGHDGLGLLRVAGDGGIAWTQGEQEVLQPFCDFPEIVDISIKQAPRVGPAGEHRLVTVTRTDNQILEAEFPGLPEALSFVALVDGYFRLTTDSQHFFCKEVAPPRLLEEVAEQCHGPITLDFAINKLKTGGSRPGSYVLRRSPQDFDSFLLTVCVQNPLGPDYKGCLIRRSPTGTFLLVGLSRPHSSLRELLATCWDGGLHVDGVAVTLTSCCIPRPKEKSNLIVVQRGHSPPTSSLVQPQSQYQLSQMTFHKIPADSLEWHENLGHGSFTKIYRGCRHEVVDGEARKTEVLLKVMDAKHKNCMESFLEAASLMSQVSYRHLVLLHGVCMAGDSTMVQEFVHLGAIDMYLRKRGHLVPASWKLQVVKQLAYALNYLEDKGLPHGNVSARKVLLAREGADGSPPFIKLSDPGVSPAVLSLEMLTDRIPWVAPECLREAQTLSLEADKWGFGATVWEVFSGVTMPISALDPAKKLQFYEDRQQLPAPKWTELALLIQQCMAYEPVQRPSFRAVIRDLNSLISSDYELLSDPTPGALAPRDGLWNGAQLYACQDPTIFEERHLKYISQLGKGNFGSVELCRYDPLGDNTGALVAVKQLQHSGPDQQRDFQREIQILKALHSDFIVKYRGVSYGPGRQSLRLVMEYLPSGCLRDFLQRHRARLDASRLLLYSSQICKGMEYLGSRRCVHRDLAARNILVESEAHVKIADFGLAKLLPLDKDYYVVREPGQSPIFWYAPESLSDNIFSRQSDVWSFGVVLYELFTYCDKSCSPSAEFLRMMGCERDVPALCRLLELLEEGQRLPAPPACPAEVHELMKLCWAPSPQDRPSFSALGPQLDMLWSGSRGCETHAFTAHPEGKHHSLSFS
Nature of the experiment: Kinobeads assay, JAK3 (competition binding in cell lysate, dot blot detection). The settings on record: mixed Molt4/Ramos lysate. Here is the method: as §1, §2, §3, §4, §5, §6

pIC50: −log10 of the molar value.

T1 sequence (O60674 whole entry): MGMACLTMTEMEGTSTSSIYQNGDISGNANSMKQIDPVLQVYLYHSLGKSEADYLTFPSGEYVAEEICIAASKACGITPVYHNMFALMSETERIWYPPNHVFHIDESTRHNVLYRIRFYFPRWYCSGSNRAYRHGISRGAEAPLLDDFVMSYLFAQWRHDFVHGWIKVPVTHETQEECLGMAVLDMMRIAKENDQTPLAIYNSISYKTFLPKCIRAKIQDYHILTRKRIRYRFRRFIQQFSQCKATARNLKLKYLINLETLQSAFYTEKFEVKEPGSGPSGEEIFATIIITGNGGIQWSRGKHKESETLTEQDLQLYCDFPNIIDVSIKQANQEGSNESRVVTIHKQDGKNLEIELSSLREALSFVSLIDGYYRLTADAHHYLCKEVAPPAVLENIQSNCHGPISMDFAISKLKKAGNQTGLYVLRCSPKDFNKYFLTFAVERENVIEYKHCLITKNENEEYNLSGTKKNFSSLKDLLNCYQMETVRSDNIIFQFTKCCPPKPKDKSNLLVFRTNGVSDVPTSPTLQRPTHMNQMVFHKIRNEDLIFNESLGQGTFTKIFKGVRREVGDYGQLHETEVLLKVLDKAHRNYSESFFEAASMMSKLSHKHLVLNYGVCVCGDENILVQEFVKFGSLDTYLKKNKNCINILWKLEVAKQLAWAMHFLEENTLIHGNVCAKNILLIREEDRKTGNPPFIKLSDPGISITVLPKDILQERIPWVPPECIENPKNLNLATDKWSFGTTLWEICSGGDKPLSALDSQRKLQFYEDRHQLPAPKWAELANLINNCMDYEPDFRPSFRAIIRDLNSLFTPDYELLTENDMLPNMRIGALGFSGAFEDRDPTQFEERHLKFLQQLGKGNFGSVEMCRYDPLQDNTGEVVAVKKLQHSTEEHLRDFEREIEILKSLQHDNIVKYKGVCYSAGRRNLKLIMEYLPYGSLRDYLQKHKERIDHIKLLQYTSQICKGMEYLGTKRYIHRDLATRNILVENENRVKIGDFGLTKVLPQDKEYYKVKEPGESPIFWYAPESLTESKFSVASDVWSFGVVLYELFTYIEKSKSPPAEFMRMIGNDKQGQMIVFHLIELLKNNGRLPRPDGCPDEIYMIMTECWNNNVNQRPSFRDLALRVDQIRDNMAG

As for `Cn1cc(Nc2ncc3cnn(CC4CCCN(C(=O)CC#N)C4)c3n2)cn1` (centres unmarked) [Example 26, 3-(3-((6-((1-methyl-1H-pyrazol-4-yl)amino)-1H-pyrazolo[3,4-d]pyrimidin-1-yl)methyl)piperidin-1-yl)-3-oxopropanenitrile], the pIC50 was 5.00 to 6.00 at JAK2 and above 7.00 on JAK3.
On to `COCCC(=O)N1CCCC(Cn2ncc3cnc(Nc4cnn(C)c4)nc32)C1` (centres unmarked) [Example 27, 3-methoxy-1-(3-((6-((1-methyl-1H-pyrazol-4-yl)amino)-1H-pyrazolo[3,4-d]pyrimidin-1-yl)methyl)piperidin-1-yl)propan-1-one], for which the pIC50 on JAK2 was 5.00 to 6.00; at JAK3, 6.00 to 7.00.
For the molecule `Cn1cc(Nc2ncc3cnn(CC4CCCN(C(=O)C5CCOCC5)C4)c3n2)cn1` (centres unmarked) [Example 28, (3-((6-((1-methyl-1H-pyrazol-4-yl)amino)-1H-pyrazolo[3,4-d]pyrimidin-1-yl)methyl)piperidin-1-yl)(tetrahydro-2H-pyran-4-yl)methanone], the pIC50 is below 5.00 on JAK2 and 6.00 to 7.00 at JAK3.
Turning to `CN(C)CC(=O)N1CCCC(Cn2ncc3cnc(Nc4cnn(C)c4)nc32)C1` (centres unmarked) [Example 29, 2-(dimethylamino)-1-(3-((6-((1-methyl-1H-pyrazol-4-yl)amino)-1H-pyrazolo[3,4-d]pyrimidin-1-yl)methyl)piperidin-1-yl)ethanone], the pIC50 is below 5.00 on JAK2 and 6.00 to 7.00 on JAK3.
With `Cn1cc(Nc2ncc3cnn(CCC4CCCNC4)c3n2)cn1` (centres unmarked) [Example 30, N-(1-methyl-1H-pyrazol-4-yl)-1-(2-(piperidin-3-yl)ethyl)-1H-pyrazolo[3,4-d]pyrimidin-6-amine], the results for the pIC50 at JAK2 and at JAK3 were below 5.00 and 6.00 to 7.00, respectively.
Take `CCS(=O)(=O)N1CCCC(Cn2ncc3cnc(Nc4cnn(C)c4)nc32)C1` (centres unmarked) [Example 31, 1-((1-(ethylsulfonyl)piperidin-3-yl)methyl)-N-(1-methyl-1H-pyrazol-4-yl)-1H-pyrazolo[3,4-d]pyrimidin-6-amine]: the pIC50 on JAK2 was 5.00 to 6.00; at JAK3, above 7.00.
On to `CC(C)S(=O)(=O)N1CCCC(Cn2ncc3cnc(Nc4cnn(C)c4)nc32)C1` (centres unmarked) [Example 32, 1-((1-(isopropylsulfonyl)piperidin-3-yl)methyl)-N-(1-methyl-1H-pyrazol-4-yl)-1H-pyrazolo[3,4-d]pyrimidin-6-amine], for which the pIC50 on JAK2 is 5.00 to 6.00; at JAK3, above 7.00.
Regarding `Cn1cc(Nc2ncc3cnn(CC4CCCN(S(=O)(=O)C5CC5)C4)c3n2)cn1` (centres unmarked) [Example 33, 1-((1-(cyclopropylsulfonyl)piperidin-3-yl)methyl)-N-(1-methyl-1H-pyrazol-4-yl)-1H-pyrazolo[3,4-d]pyrimidin-6-amine], the pIC50 at JAK2 is 5.00 to 6.00; at JAK3, above 7.00.
For `Cn1cc(Nc2ncc3cnn(CCC4CCCN(S(C)(=O)=O)C4)c3n2)cn1` (centres unmarked) [Example 34, N-(1-methyl-1H-pyrazol-4-yl)-1-(2-(1-(methylsulfonyl)piperidin-3-yl)ethyl)-1H-pyrazolo[3,4-d]pyrimidin-6-amine], the pIC50 at JAK2 is 5.00 to 6.00; at JAK3, 6.00 to 7.00.
`COCCN1CCCC(Cn2ncc3cnc(Nc4cnn(C)c4)nc32)C1` (centres unmarked) [Example 35, 1-((1-(2-methoxyethyl)piperidin-3-yl)methyl)-N-(1-methyl-1H-pyrazol-4-yl)-1H-pyrazolo[3,4-d]pyrimidin-6-amine]: the pIC50 is below 5.00 on JAK2 and above 7.00 at JAK3.
As to `CCOC(=O)N1CCCC(Cn2ncc3cnc(Nc4cnn(C)c4)nc32)C1` (centres unmarked) [Example 36, ethyl 3-((6-((1-methyl-1H-pyrazol-4-yl)amino)-1H-pyrazolo[3,4-d]pyrimidin-1-yl)methyl)piperidine-1-carboxylate], the pIC50 on JAK2 was below 5.00; at JAK3 it was 6.00 to 7.00.
Take `CSCCN1CCCC(Cn2ncc3cnc(Nc4cnn(C)c4)nc32)C1` (centres unmarked) [Example 37, N-(1-methyl-1H-pyrazol-4-yl)-1-((1-(2-(methylthio)ethyl)piperidin-3-yl)methyl)-1H-pyrazolo[3,4-d]pyrimidin-6-amine]: the results for the pIC50 at JAK2 and at JAK3 were below 5.00 and above 7.00, respectively.
In the same order, the values of `COC(=O)N1CCCC(Cn2ncc3cnc(Nc4cnn(C)c4)nc32)C1` (centres unmarked) [Example 38, methyl 3-((6-((1-methyl-1H-pyrazol-4-yl)amino)-1H-pyrazolo[3,4-d]pyrimidin-1-yl)methyl)piperidine-1-carboxylate] are below 5.00 and 6.00 to 7.00.
In the same order, the values of `CS(=O)(=O)N1CCCC(Cn2ncc3cnc(Nc4cnn(CCO)c4)nc32)C1` (centres unmarked) [Example 39, 2-(4-((1-((1-(methylsulfonyl)piperidin-3-yl)methyl)-1H-pyrazolo[3,4-d]pyrimidin-6-yl)amino)-1H-pyrazol-1-yl)ethanol] are 5.00 to 6.00 and above 7.00.
For the molecule `Cn1cc(Nc2ncc3cnn(CC4CCNC4)c3n2)cn1` (centres unmarked) [Example 40, N-(1-methyl-1H-pyrazol-4-yl)-1-(pyrrolidin-3-ylmethyl)-1H-pyrazolo[3,4-d]pyrimidin-6-amine], the negative-log IC50 (pIC50) is 5.00 to 6.00 on JAK2 and 6.00 to 7.00 on JAK3.
On to `Cn1cc(Nc2ncc3cnn(CC4CCCN(CCC#N)C4)c3n2)cn1` (centres unmarked) [Example 41, 3-(3-((6-((1-methyl-1H-pyrazol-4-yl)amino)-1H-pyrazolo[3,4-d]pyrimidin-1-yl)methyl)piperidin-1-yl)propanenitrile], for which the pIC50 on JAK2 was 5.00 to 6.00; at JAK3, above 7.00.
